Laboratory results as given in patent US10000566B2, “Anti-CD33 antibodies and methods for treatment of acute myeloid leukemia using the same” (IMMUNOGEN INC., priority 2002, dated 2018).
“Also recorded” adds a separate entry of the source.

Legend:
[1] = target: T1, CD33 on HL-60 cells (Homo sapiens, UniProt P20138); assay: Antibody and conjugate binding to HL-60 cells by flow cytometry
T1 construct: endogenous in cells; host or cells: HL-60 human leukemic cell line (whole cells; plasma membranes prepared from HL-60)
Description: HL-60 cells were incubated with various concentrations of either My9-6 antibody or My9-6-DM1. The cells were then washed and incubated with a secondary FITC-labeled anti-murine IgG antibody. Following an additional wash, cells were fixed with 2% formaldehyde and cell-associated fluorescence was quantified using a BD FACScan flow cytometer.

[2] = test system: THP-1 cells; assay: In vitro clonogenic cytotoxicity assay, CD33-expressing cells; format: cell-based, human; details: THP-1, clonogenic assay
Description: (§1) The cytotoxicity of My9-6-DM1 was measured using the CD33-expressing THP-1 cell and the CD33-negative cell line Namalwa. Cells were plated in 96-well plates in media containing the conjugate and incubated at 37° C. until colonies had formed (2-3 weeks). Colonies were then scored, and the surviving fractions determined using Poisson distribution in the calculations.
(§2) The cytotoxicity of My9-6-DM1 toward CD33 expressing cells (THP-1) compared to a CD33-negative cell line (Namalwa) was tested using a clonogenic assay, where cell killing activity is determined by quantifying the number of colonies that can grow following treatment.

[3] = test system: Namalwa cells; assay: In vitro clonogenic cytotoxicity assay, CD33-negative cells; format: cell-based
Description: as §1, §2

[4] = test system: human HL-60 tumor cell xenografts; assay: Subcutaneous HL-60 tumor xenograft model in SCID mice; format: in vivo
Description: (§3) Subcutaneous tumor model—HL-60 human promyelocytic leukemia cells (5×10^6 cells in 0.1 mL) were subcutaneously inoculated into the right flank of female SCID mice. Mice were treated by intravenous injection into a lateral tail vein starting when tumors reached 100 mm^3 in size (400 mm^3 in large tumor model). Tumor size and mouse body weight were measured twice per week. Survival model—HL-60 cells (5×10^6 cells in 0.1 mL) were intravenously injected into the lateral tail vein of female SCID mice. Eleven days after tumor cell injection treatment was started. Mice were checked every day for moribund, tumor mass, or death. Body weight was measured twice per week.
The efficacy of My9-6-DM1 in vivo was determined using SCID mice bearing human HL-60 tumor cell xenografts. HL-60 cells were injected subcutaneously and tumors were allowed to grow to an average size of 100 mm^3. Dosage is expressed as mg antibody in the conjugate, which corresponds to a DM1 dose of approximately 15 μg DM1 per mg of antibody. Tumor volume was measured as an indication of treatment efficacy and mouse body weight was monitored to indicate toxicity due to treatment.

[5] = test system: human THP-1 tumor xenografts; assay: Subcutaneous THP-1 tumor xenograft model in mice; format: in vivo; details: data not shown
[6] = test system: large HL-60 tumors; assay: Large HL-60 tumor xenograft model in SCID mice; format: in vivo
Description: as §3
Tumors were allowed to grow to a tumor volume of >400 mm^3 prior to the initiation of treatment. In addition, a comparison of the activity of My9-6-DM1 with standard chemotherapeutic drugs was conducted. […]

[7] = test system: HL-60 cells injected intravenously; assay: HL-60 cell mouse survival model; format: in vivo, SCID mice; details: treatment starting 11 days after cell injection
Description: FIGS. 24A & B show anti-tumor efficacy of My9-6-DM1 compared with Gentuzumab ozogamicin and standard chemotherapy in an HL-60 survival model. HL-60 cells were intravenously injected into SCID mice. Indicated treatments were started 11 days following injection of cells. Treatments were i.v. daily ×5 except for Gentuzumab ozogamicin (Q4D×3).
as §3
While the efficacy of My9-6-DM1 in the tumor xenograft model is striking, it is also of interest to look at the activity of the conjugate in a mouse survival model where HL-60 cells are injected directly into a mouse tail vein. In this model, control mice die between 30 and 50 days after cell injection. […] However, even in this model, standard chemotherapy provided no significant survival enhancement (FIG. 24B).

[8] = target: T2, CD33 (Homo sapiens, UniProt P20138); details: 9 mg/m^2 i.v. over 4 hours, repeated after 14 days; cited from earlier work
T2 construct: Gemtuzumab ozogamicin was evaluated in phase I and II clinical studies; host or cells: patients (AML)

[9] = target: T2, CD33; details: Phase I; cited from earlier work
[10] = in vivo; cited from earlier work
[11] = test system: leukemia cells (HL-60 cell cultures, HL-60 tumor xenografts in mice, marrow samples from AML patients); details: cited from earlier work
[12] = nude mice; cited from earlier work
[13] = 20 mg conjugated antibody/kg/day i.v. ×5 days
[14] = second treatment identical to the first
[15] = tumor volume >400 mm^3 at start of treatment
[16] = 100 μg/kg, every 4 days for 3 doses

T2 sequence (P20138 18-364): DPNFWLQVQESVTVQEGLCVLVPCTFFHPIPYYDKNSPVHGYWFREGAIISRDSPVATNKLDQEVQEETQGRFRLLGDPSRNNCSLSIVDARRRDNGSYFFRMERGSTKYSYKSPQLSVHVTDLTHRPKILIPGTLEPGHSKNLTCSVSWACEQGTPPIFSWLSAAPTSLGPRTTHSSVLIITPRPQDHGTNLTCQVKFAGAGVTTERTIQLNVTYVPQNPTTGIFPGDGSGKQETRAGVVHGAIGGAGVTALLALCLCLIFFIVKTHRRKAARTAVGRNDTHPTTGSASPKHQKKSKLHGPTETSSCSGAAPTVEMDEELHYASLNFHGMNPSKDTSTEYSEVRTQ
T1 sequence (P20138 18-364): as above

My9-6-DM1: murine My9-6 antibody linked via SPP disulfide linker to the maytansinoid DM1
CD33 binding of conjugate compared with unmodified antibody [1]: maintained the specificity and binding affinity of the unmodified antibody; also recorded: comparable to the unmodified antibody | cytotoxicity toward CD33-positive tumor cells [2]: potent antigen-specific cytotoxicity; also recorded: potent cell killing activity | toxicity toward CD33-negative cells [3]: No significant toxicity | mice showing complete cures ([4]; 13 mg/kg i.v. once a day for 5 days): 2 of 5 | tumor growth delay ([4]; 13 mg/kg i.v. once a day for 5 days, the other 3 mice): approximately 20 days | toxicity [4, 13]: no toxicity | tumor response [4, 13]: complete eradication of the tumors | tumor response ([4]; 23 mg antibody/kg (350 μg DM1/kg) daily for 5 days): complete regression of the tumors | mouse body weight decrease ([4]; 23 mg antibody/kg daily for 5 days): 12% | mice with regrowth of tumors ([4]; 23 mg antibody/kg daily for 5 days, starting at day 70): two of the six | maximum body weight loss ([4]; 19 and 26 mg/kg i.v. once a day for 5 days): less than 10% | tumor response ([4]; 19 and 26 mg/kg i.v. once a day for 5 days, tumors 100 mm^3): complete regression of the tumors | outcome of mice bearing HL-60 xenografts ([4]; i.v. once a day for 5 days): long-term cures | toxicity at curative doses ([4]; i.v. once a day for 5 days): little toxicity | response of relapsing tumors to second treatment [4, 14]: complete regression | toxicity of second treatment [4, 14]: no adverse toxicity | outcome of mice bearing THP-1 xenografts [5]: long-term cures | response of relapsed tumors to second treatment ([6]; second treatment of My9-6-DM1): sensitive to a second treatment | mice with relapsed tumors [6, 15]: 2 of 6 | tumor response [6, 15]: complete regression of large tumors | effect on survival [7]: dramatic increase in survival | mice alive at 70 days ([7]; i.v. daily ×5): 7 of 8

Gemtuzumab ozogamicin: humanized anti-CD33 antibody conjugated to calicheamicin [reference compound]
tumor growth delay [4, 16]: about 25 days | tumor response [4, 16]: modest tumor regression | toxicity in SCID mice ([4]; 0.3 mg/kg, preliminary experiment, data not shown): too toxic | toxicity ([4]; 100 and 200 μg/kg, every 4 days for 3 doses): Significant toxicity | maximum tolerated dose ([4]; SCID mice, every 4 days for 3 doses): 0.1 mg/kg | effect on survival [7]: modest increase in survival | response rate [8]: 30% | major toxicity observed [9]: myelosuppression | toxicity in post-marketing reports [10]: venoocclusive disease (VOD) | killing of leukemia cells [11]: specific killing of leukemia cells | published MTD [12]: 0.3 mg/kg
